Results as given in patent publication US20150259294A1, “METHOD OF PLANT GROWTH PROMOTION USING CARBOXAMIDE DERIVATIVES” (BAYER CROPSCIENCE AG, priority 2012, published 2015).

Legend:
wheat leave discs = test: Chlorophyll preservation bioassay in wheat leave discs; settings: for Chlorophyll content (%): wheat leave discs at 4 dpt vs control at 0 dpt; for colour of leave discs at the end of the experiment: wheat and barley leave discs, 3 or 4 dpt in the dark
Description: (§1) To confirm the greening effect of compounds of formula (I) according to the invention observed in field trials, a simple bioassay was set up using wheat and barley. Discs of 1 cm of diameter were cut within leaves collected from 4 weeks old plants and deep at room temperature in water for 1 hour to allow ethylene produced after wound injury to dissipate. Control samples were produced dipping leave discs for 15 min in a solution of 5% DMSO-10% acetone-0.005% tween80 (bioassay formulation), immediately frozen (control 0 day post treatment-dpt) or deposited on Whatmann filter paper soaked by the bioassay formulation, in Petri dishes, […] Leaves discs treated with test compound were processed in the same way. In this case, leave discs were deep for 15 minutes in test compound solution and left to incubate on filter paper soaked with the corresponding test solution. Compounds of formula (I) according to the invention were tested in EC100 formulation unless otherwise specified; Other SDHI fungicides (Fluxapyroxad, Isopyrazam and Hambra) were tested in their respective field formulations.
(§2) Leave discs were frozen in liquid nitrogen and ground prior to chlorophyll extraction with 1 mL of an acetone-water (80-20 vol/vol) solution and chlorophyll concentration evaluation at 663 nm. Percentages of chlorophyll content in 3 or 4 dpt controls and corresponding treated samples were reported to the chlorophyll content measured in 0 dpt controls.

[1] = system: winter wheat variety Dekan; test: Foliar application field trial Laacherhof: yield of winter wheat; type: in vivo; settings: 50 g a.i./ha, sprayed threefold at BBCH 31, 39 and 69, 100EC formulation with adjuvant; for Grain Yield (dt/ha): untreated control 86.25
Description: (§3) The field trial in winter wheat was conducted in the experimental station “Laacherhof” in Germany in spring/summer 2012.
(§4) Seeds of the winter wheat variety “Dekan” were planted on Oct. 17, 2011. Fertilization, herbicide- and plant growth regulator applications were carried out according to the local agricultural practice. Additionally, a cover spray with “Pronto Plus” was carried out at BBCH-growth stage 51 in order to keep brown rust (Puccinia triticina) out of the field trial (trial under pathogen-free conditions). The trial was conducted with 3 replicates and the replicates 2 and 3 were randomized. The plot size was 8.8 m^2.
(§5) Compounds A5 (N-(5-chloro-2-isopropylbenzyl)-N-cyclopropyl-3-(difluoromethyl)-5-fluoro-1-methyl-1H-pyrazole-4-carboxamide), A7 (N-cyclopropyl-3-(difluoromethyl)-5-fluoro-N-(5-fluoro-2-isopropylbenzyl)-1-methyl-1H-pyrazole-4-carboxamide), A12 (N-cyclopropyl-3-(difluoromethyl)-5-fluoro-N-(2-isopropyl-5-methylbenzyl)-1-methyl-1H-pyrazole-4-carboxamide) and A10 (N-cyclopropyl-3-(difluoromethyl)-5-fluoro-N-(2-fluoro-6-isopropylbenzyl)-1-methyl-1H-pyrazole-4-carboxamide) were sprayed threefold at BBCH-growth stages 31, 39 and 69 with an use rate of 50 g a.i./ha. All compounds were applied as 100EC formulation adding an adjuvant.
The winter wheat was harvested on Aug. 3, 2012.

soybean cultivar BRS 245 = test: Soybean seed treatment field trial: development and yield; type: in vivo; settings: for Plant Height (cm)/%: 050 SC, 42 days after planting, untreated control 33 cm = 100%; for Weight Root (g)/% / Weight Dry Plant (g)/%: 49 days after planting; for Weight Root (g)/%: untreated control 10 g = 100%; for Weight Dry Plant (g)/%: untreated control 46 g = 100%; for Grain Yield (dt)/%: untreated control 28 dt = 100%; for Weight of 1000 Grains (g)/%: untreated control 125 g = 100%
Description: Seeds of the Brazilian soybean cultivar BRS 245 were treated with compound A5: […] The product was applied as 050 SC with rates of 25 and 100 g a.i./dt. The field trial was set up in an experimental station close to Paulinia, S. P., in Brazil, in February 2012. […] Fertilization, herbicide- and insecticide applications were carried out according to the local agricultural practice. 42 days after planting plant height, 49 days after planting the dry weight of both entire green plants and the roots were measured. This trial was done under almost disease free conditions (“Asian Soybean Rust” Phakopsora pachyrhizi arrived about month after planting with a very low severity).

[2] = system: winter wheat variety Dekan; test: Foliar application field trial Laacherhof: greening effect in winter wheat; type: in vivo; settings: 50 g a.i./ha, sprayed threefold at BBCH 31, 39 and 69; percentage of the color green; untreated control 21.7
Description: as §3, §4, §5
The greening effect of the single treatments was evaluated on Jul. 6, 2012.

barley leave discs = test: Chlorophyll preservation bioassay in barley leave discs; settings: barley leaves at 3 dpt vs control at 0 dpt
Description: as §1, §2

[3] = system: winter wheat variety Akteur; test: Foliar application field trial Langfoerden (FA12DSD559XJE1): yield in winter wheat; type: in vivo; settings: for Grain Yield (dt/ha): 100 EC, disease free, untreated control 62
Description: The field trial FA12DSD559XJE1 was conducted in the experimental station “Langfoerden” in Germany in spring 2012.
Winter wheat, variety “Akteur”, was planted on November 2011. Fertilization, herbicide- and plant growth regulator applications were carried out according to the local agricultural practice.
The trial was conducted with 4 replicates. Plot size was 16 m^2 and there were four replicates.
Compound A5 was applied as a 100 EC formulation with rates of 37 and 75 g a.i./ha twice in the growing season at BBCH-growth stages EC 33 and 61.
In this trial there was no significant disease severity assessed. It can be considered as disease free.
(§6) The trial was harvested on August 2012.

corn = test: Foliar application field trial USA (FA12NARS4CUJX1): green foliage and yield in corn; type: in vivo; settings: for Greening Effect (%): 100 EC, green foliage of corn at EC 79, untreated control 43; for Grain Yield (dt/ha): untreated control 39.5
Description: The field trial FA12NARS4CUJX1 was conducted in the USA (IA, 50046 Cambridge) in spring 2012.
The crop was planted on April 2012. Fertilization and herbicide applications were carried out according to the local agricultural practice.
The trial was conducted with 4 replicates. Plot size was 80 m^2 and there were four replicates.
Compound A5 was applied as a 100 EC formulation with rates of 20 and 50 g a.i./ha twice in the growing season at BBCH-growth stages EC 15 and 61.
In this trial there was no significant leaf disease severity assessed (Kabatiella zeae pest severity below 5%). It can be considered as almost disease free.
The trial was harvested on September 2012.

[4] = system: winter wheat variety Dekan; test: Foliar application field trial Höfchen: green leaves and yield in winter wheat; type: in vivo; settings: for Greening Effect (%): 100 EC, assessed at EC 85, 38 days after second application, untreated control 0; for Grain Yield (dt/ha): untreated control 85
Description: The field trial was conducted in the experimental station “Höfchen” in Germany in spring 2012. Winter wheat, variety “Dekan”, was planted on October 2011. Fertilization, herbicide- and plant growth regulator applications were carried out according to the local agricultural practice.
The trial was conducted with 4 replicates. Plot size was 12 m^2 and there were four replicates.
Compound A5 was applied as a 100 EC formulation with rates of 37 and 75 g a.i./ha twice in the growing season at BBCH-growth stages EC 33 and 55.
The effect on the green foliage was assessed on July 2012, 38 days after the second application, at growth stage EC 85, (see table 6).
as §6

[5] = formula (I) compounds in EC100 formulation, other SDHI in field formulations
[6] = 37 g a.i./ha twice (EC 33 and 61)
[7] = 75 g a.i./ha twice (EC 33 and 61)
[8] = 20 g a.i./ha twice (EC 15 and 61)
[9] = 50 g a.i./ha twice (EC 15 and 61)
[10] = 37 g a.i./ha twice (EC 33 and 55)
[11] = 75 g a.i./ha twice (EC 33 and 55)

## CC(C)c1ccccc1CN(C(=O)c1c(C(F)F)nn(C)c1F)C1CC1 [Compound A1, N-cyclopropyl-3-(difluoromethyl)-5-fluoro-N-(2-isopropylbenzyl)-1-methyl-1H-pyrazole-4-carboxamide]
Wheat leave discs; [5]
  Chlorophyll content (%): 87%

## CC(C)c1ccc(Cl)cc1CN(C(=O)c1c(C(F)F)nn(C)c1F)C1CC1 [Compound A5, N-(5-chloro-2-isopropylbenzyl)-N-cyclopropyl-3-(difluoromethyl)-5-fluoro-1-methyl-1H-pyrazole-4-carboxamide]
[1]
  Grain Yield (% of Untreated Control): 120%
  Grain Yield (dt/ha): 103.1 dt/ha
Soybean cultivar BRS 245; seed treatment 25 g a.i./dt
  Plant Height (cm)/%: 105%
  Weight Root (g)/%: 117%
  Weight Dry Plant (g)/%: 107%
  Grain Yield (dt)/%: 112%
  Weight of 1000 Grains (g)/%: 103%
Soybean cultivar BRS 245; seed treatment 100 g a.i./dt
  Plant Height (cm)/%: 105%
  Weight Root (g)/%: 103%
  Weight Dry Plant (g)/%: 108%
  Grain Yield (dt)/%: 111%
  Weight of 1000 Grains (g)/%: 105%
Soybean cultivar BRS 245; seed treatment, almost disease free conditions
  impact on development and yield of soybean (in words): clearly stimulates the physiological development of soybean plants and boosts both grain yield and the grain weight
[2]
  Greening Effect (%): 26.7%
Barley leave discs; [5]
  Chlorophyll content (%): 55%
[3]; [6]
  Grain Yield (% of Untreated Control): 117%
  Grain Yield (dt/ha): 72 dt/ha
[3]; [7]
  Grain Yield (% of Untreated Control): 124%
  Grain Yield (dt/ha): 76 dt/ha
[3]; foliar sprays, practically disease-free
  effect on grain yield in winter wheat (in words): clearly has an effect on grain yield
corn; [8]
  Grain Yield (% of Untreated Control): 123%
  Greening Effect (%): 59%
  Grain Yield (dt/ha): 48.5 dt/ha
corn; [9]
  Grain Yield (% of Untreated Control): 131%
  Greening Effect (%): 63%
  Grain Yield (dt/ha): 51.8 dt/ha
corn; foliar sprays
  effect on maintenance of green leaves in corn (in words): clearly has an effect on the maintenance of the green leaves shortly before harvest
Wheat leave discs; [5]
  Chlorophyll content (%): 78%
[4]; [10]
  Grain Yield (% of Untreated Control): 128%
  Greening Effect (%): 54%
  Grain Yield (dt/ha): 109 dt/ha
[4]; [11]
  Grain Yield (% of Untreated Control): 136%
  Greening Effect (%): 86%
  Grain Yield (dt/ha): 115 dt/ha
[4]; foliar sprays
  effect on maintenance of green leaves in winter wheat (in words): clearly has an effect on the maintenance of the green leaves shortly before harvest

## CC(C)c1ccc(F)cc1CN(C(=O)c1c(C(F)F)nn(C)c1F)C1CC1 [Compound A7, N-cyclopropyl-3-(difluoromethyl)-5-fluoro-N-(5-fluoro-2-isopropylbenzyl)-1-methyl-1H-pyrazole-4-carboxamide]
[1]
  Grain Yield (% of Untreated Control): 115%
  Grain Yield (dt/ha): 99.4 dt/ha
[2]
  Greening Effect (%): 36.7%
Barley leave discs; tested in EC50 formulation
  Chlorophyll content (%): 77%
Wheat leave discs; tested in EC50 formulation
  Chlorophyll content (%): 83%

## CC(C)c1cccc(F)c1CN(C(=O)c1c(C(F)F)nn(C)c1F)C1CC1 [Compound A10, N-cyclopropyl-3-(difluoromethyl)-5-fluoro-N-(2-fluoro-6-isopropylbenzyl)-1-methyl-1H-pyrazole-4-carboxamide]
[1]
  Grain Yield (% of Untreated Control): 116%
  Grain Yield (dt/ha): 99.9 dt/ha
[2]
  Greening Effect (%): 50.0%
Barley leave discs; [5]
  Chlorophyll content (%): 60%

## Cc1ccc(C(C)C)c(CN(C(=O)c2c(C(F)F)nn(C)c2F)C2CC2)c1 [Compound A12, N-cyclopropyl-3-(difluoromethyl)-5-fluoro-N-(2-isopropyl-5-methylbenzyl)-1-methyl-1H-pyrazole-4-carboxamide]
[1]
  Grain Yield (% of Untreated Control): 110%
  Grain Yield (dt/ha): 94.9 dt/ha
[2]
  Greening Effect (%): 53.3%
Barley leave discs; [5]
  Chlorophyll content (%): 72%
Wheat leave discs; [5]
  Chlorophyll content (%): 88%

## Cc1ccc(C(C)(C)C)c(CN(C(=O)c2c(C(F)F)nn(C)c2F)C2CC2)c1 [Compound A14, N-(2-tert-butyl-5-methylbenzyl)-N-cyclopropyl-3-(difluoromethyl)-5-fluoro-1-methyl-1H-pyrazole-4-carboxamide]
Barley leave discs; [5]
  Chlorophyll content (%): 77%

## Cn1cc(C(=O)Nc2ccccc2-c2cc(F)c(F)c(F)c2)c(C(F)F)n1 [Fluxapyroxad, reference compound]
Barley leave discs; [5]
  Chlorophyll content (%): 28%
Wheat leave discs
  colour of leave discs at the end of the experiment: discolored
Wheat leave discs; [5]
  Chlorophyll content (%): 51%

## CC(C)C1C2CCC1c1c(NC(=O)c3cn(C)nc3C(F)F)cccc12 (stereo not drawn) [Isopyrazam, reference compound]
Barley leave discs; [5]
  Chlorophyll content (%): 32%
Wheat leave discs
  colour of leave discs at the end of the experiment: discolored
Wheat leave discs; [5]
  Chlorophyll content (%): 49%
